Converted amounts (≈) assume the structure as drawn.
Legend:
Apis mellifera = conditions: acute; duration: 48 hours; oral; unspecified; mortality
Bibionidae = conditions: chronic/long-term; duration: 28 days; development
Colinus virginianus = conditions: for LD50: acute, oral
Cyprinus carpio = conditions: acute; duration: 96 hours; mortality
Daphnia magna = conditions: chronic/long-term; duration: 21 days; reproduction
Mus musculus = conditions: chronic; duration: 18 months; histopathology: neoplastic
Oryctolagus sp. = conditions: reproduction developmental; body weight
Pimephales promelas = conditions: chronic/long-term; duration: 28 days; growth
Tagia sp. = conditions: mortality
Aphidius rhopalosiphi = assay: LR50; higher = less toxic; conditions: acute; duration: 48 hours; mortality
Typhlodromus pyri = assay: LR50; higher = less toxic; conditions: acute; duration: 7 days; mortality

Which results are given for `Cc1c(Br)c2ccc(F)cc2n1S(=O)(=O)c1ncn(S(=O)(=O)N(C)C)n1` [Amisulbrom]?
LD50 (Apis mellifera): > 100 µg/piece; NOEC (Bibionidae): 0.111 mg/L; LD50 (Colinus virginianus): > 2000 mg/kg-day; LD50 (Colinus virginianus; diet): > 1080 mg/kg-day; NOEC (Colinus virginianus; reproduction developmental): 34.2 mg/kg-day; LC50 (Cyprinus carpio): 0.0229 mg/L (≈ 0.0491 µM); NOEC (Daphnia magna): 0.0197 mg/L; NOAEL (Mus musculus): 11.6 mg/kg-day; NOAEL (Oryctolagus sp.): 30 mg/kg-day; NOEC (Pimephales promelas): 0.037 mg/L; LD50 (Rattus norvegicus; acute, oral): > 5000 mg/kg-day; NOAEL (Rattus norvegicus; chronic, duration: 2 years, histopathology: neoplastic): 11.1 mg/kg-day; NOAEL (Rattus norvegicus; reproduction developmental, reproduction): 48.5 mg/kg-day; LC50 (Tagia sp.; acute, duration: 14 days): > 1000 mg/kg; NOEC (Tagia sp.; chronic/long-term, duration: 28 days): 93.7 mg/kg; LR50 (Aphidius rhopalosiphi): > 1000 g/ha; LR50 (Typhlodromus pyri): > 1000 g/ha

From EPA's ToxValDB 9.5 (doi:10.2903/j.efsa.2014.3237)
